Data reported in article PMC7527053, “Structure of Merkel Cell Polyomavirus Capsid and Interaction with Its Glycosaminoglycan Attachment Receptor” (Journal of Virology, 2020).

Experiments:
[1] = biological target: Merkel cell polyomavirus (MCPyV) major capsid protein VP1, assembled as virus-like particles (Merkel cell polyomavirus (MCC isolate 339)); assay: nonreducing SDS-PAGE; purified VLPs incubated with 10 mM DTT and/or 50 mM EDTA with 2% SDS for 1 h at ambient temperature; capsid to pentamers
[2] = biological target: Merkel cell polyomavirus (MCPyV) major capsid protein VP1, assembled as virus-like particles (Merkel cell polyomavirus (MCC isolate 339)); assay: crystal structure; filled VLPs (fVLPs), crystals grown in 0.1 M sodium citrate pH 4.6, 30% MPD, 0.2 M NaCl at 20°C; 3.5 Å
[3] = biological target: T1, MCPyV VLPs (VP1/VP2 virus-like particles) (Merkel cell polyomavirus, UniProt B0G0W3); assay: STD-NMR; format: binding; conditions: 10 uM VLP, 1 mM ligand, 150 mM NaCl, 1 mM CaCl2, D2O, 283 K
T1 construct: untagged icosahedral VLPs of 72 VP1 pentamers; VP1-only VLPs behaved the same; with Minor capsid protein VP2

[4] = biological target: T2, HPV-16 VLPs (L1- and L2-containing) (Human papillomavirus 16, UniProt P03101); assay: STD-NMR; format: binding; conditions: 10 uM VLP, 1 mM ligand, D2O, 283 K; buffer printed as PBS and as 150 mM NaCl, 20 mM KH2PO4 pH 7.4
T2 construct: L1/L2 VLPs produced by the MCPyV VLP procedure (293TT cells) without the ion chromatography step; plasmids pshell16 and p16L1L2; with Minor capsid protein L2

Molecule: Merkel cell polyomavirus (MCPyV) major capsid protein VP1, assembled as virus-like particles (natural protein)
- stoichiometry N [1]: 5
- stoichiometry N [2]: 360

Molecule: O=C(O)C1=C[C@H](O)[C@@H](OS(=O)(=O)O)[C@H](O[C@H]2[C@H](O)[C@@H](NS(=O)(=O)O)C(O)O[C@@H]2COS(=O)(=O)O)O1 (some centres unmarked) [HS-dp2, ΔUA2Sα1-4GlcNS6S]
- STD-NMR ([3]; VP1-only and VP1/VP2 VLPs): an interaction between MCPyV VLPs and dp2 was unambiguously observed

Molecule: CO[C@H]1O[C@H](COS(=O)(=O)O)[C@@H](O[C@@H]2O[C@@H](C(=O)O)[C@@H](O[C@H]3O[C@H](COS(=O)(=O)O)[C@@H](O[C@@H]4O[C@H](C(=O)O)[C@@H](O[C@H]5O[C@H](COS(=O)(=O)O)[C@@H](O)[C@H](O)[C@H]5NS(=O)(=O)O)[C@H](O)[C@H]4O)[C@H](OS(=O)(=O)O)[C@H]3NS(=O)(=O)O)[C@H](O)[C@H]2OS(=O)(=O)O)[C@H](O)[C@H]1NS(=O)(=O)O [Arixtra, GlcNS6Sα1-4GlcAα1-4GlcNS3S6Sα1-4IdoA2Sα1-4GlcNS6Sα-OMet]
- STD-NMR ([3]; filled (and empty) VLPs): we observed STD-NMR signals throughout the full length of the pentasaccharide
- STD-NMR [4]: the HPV-16 VLP Arixtra binding epitope is indistinguishable from the MCPyV VLP Arixtra epitope
